We go through two substances from patent US5618713A, “Mutants of human antithrombin III” (Behringwerke Aktiengesellschaft, priority 1989, dated 1997).

Common to all, as to type: biochemical
Series [1] concerns bovine thrombin. Kind of series: progressive inhibitory activity (Hensen et al. 1963), rate of thrombin inactivation, clotting time. The following applies: purified protein, without heparin. Here is the method: As taught in Hensen et al., progressive inhibiting activity is measured by an antithrombin III assay according to the principle that the material to be tested is incubated with thrombin. The rate of thrombin inactivation is measured and is used as a standard of antithrombin III activity.
In the procedure, a bovine thrombin solution of 50 N.I.H. units/ml, stored at-25° C., after being thawed is kept as melting ice; 0.2 ml of this thrombin solution with 0.6 ml veronal buffer, in a siliconized tube, is placed in a waterbath at 37° C. After a minimum of 2 minutes preheating, 0.2 ml of the material to tested (heat-defibrinated plasma or serum or a plasma fraction) is added to the mixture, and a chronometer is started. Exactly 1, 3 and 5 minutes later, 0.2 ml of this incubation mixture is added to 0.3 ml diluted bovine BaSO4 -plasma which has been pre-heated in the waterbath for 2-20 minutes and kept in non-siliconized tubes. The clotting times obtained are registered. The determination is made in duplicate.
If the antithrombin III activity in the sample tested is found to be low (less than 50% of the normal), then the determination should be repeated with the double quantity of the material to be tested (0.4 ml and 0.4 ml veronal buffer).
In the calculation, three times are obtained per determination. […]

For series [2], the system named is thrombin. Kind of series: heparin cofactor activity (Schrader et al. 1986), Berichrom test kit, excess heparin and thrombin. The following applies: purified protein, excess of heparin and thrombin. Here is the method: As taught in Schrader et al., for the determination of the heparin cofactor activity of the AT III mutants with the test kit Berichrom® (Behringwerke AG, Marburg) a solution with the particular AT III mutant was incubated with an excess of heparin and thrombin. The produced AT III mutant-heparin-complex inhibits a part of the thrombin. The non-inactivated part of the thrombin cleaves the chromogenic substrate which was added to the solution and the amount of produced p-nitroaniline was measured at 405 nm photometrically.

Series [3] concerns alpha-thrombin (human). As to the kind of experiment: dependence of thrombin inactivation on the heparin concentration. Here is the method: The two mutants were examined for their relative ability to inactivate thrombin as a function of the heparin concentration in the assay and compared with AT III plasma, AT III-WT and the mutant AT III-Lys49 (Tab. 5).
The assay was carried out under the following conditions: 0.02 U (antigen)/ml AT III (AT III plasma, AT III-WT or AT III-Mut) was preincubated with 0.3 IU/ml alpha-thrombin (human), 2 KIU/ml aprotinin (Behringwerke) and heparin (Hoffmann-LaRoche) in concentrations of 0-25 IU/ml in a volume of I ml at 37° C. for 5minutes. After addition of 100 μl of substrate reagent (2 mM HD-CHA-But-Arg-pNA), the change in extinction at 405 nm (37° C.) was followed kinetically. The maximum inhibition of alpha-thrombin at heparin saturation was set equal to 100%.
Tab. 5 indicates the heparin concentration at half-maximum thrombin inhibition (c 1/2) for AT III plasma, AT III-WT and various AT III mutants.

In series [4] the target is elastase from human polymorphonuclear granulocytes (PMN elastase). As to the kind of experiment: PMN elastase inhibition assay (chromogenic substrate MeO-Suc-Ala-Ala-Pro-Val-pNA). Here is the method:
The liberation of the paranitroaniline from the substrate was measured in a spectrophotometer as the increase in absorption at 405 nm within 15 min. This absorption was defined as 100% activity of the PMN elastase enzyme. The inhibitors were preincubated in concentrations increasing up to a maximum of 100 μg/ml with the enzyme for one hour. The enzyme reaction was then started with the substrate. The assay was carried out in 0.1 mol/1 HEPES, pH 7.5, +0.1 mol/1 sodium chloride. The substrate concentration was 0.13 mmol/1.

For the substance “ATIII-Gln135: AT III mutant with Asn→Gln exchange in position 135, lacking a carbohydrate side-chain”, the “PI, progressive inhibitory activity” value in series [1] is on record as 3.9 U/mg. The “HC, heparin cofactor activity” value in series [2] was determined as 4.5 U/mg. The “C 1/2 Heparin, heparin concentration at half-maximum relative thrombin inhibition” value in series [3] (0.02 U/ml AT III, 0.3 IU/ml alpha-thrombin, heparin 0-25 IU/ml, 5 min 37° C.) is 22 mIU/ml. The “inhibition of thrombin at low heparin concentrations” value in series [3] (compared in words) was “better than that of AT III plasma and AT III-WT”.

“alpha1 PI: reference inhibitor alpha1 protease inhibitor (alpha1 antitrypsin)”: the “IC50, inhibition of PMN elastase” value in series [4] (1 h preincubation with enzyme, substrate 0.13 mmol/l, 0.1 mol/l HEPES pH 7.5 + 0.1 mol/l NaCl, max. 100 μg/ml) worked out at 3.7 mg/L. In addition, the “type of inhibition of PMN elastase” value in series [4] (KI determination) is “non-competitive inhibition”.
